Experimental data published in patent US4459290A, “C-23-Modified derivatives of OMT, pharmaceutical compositions and method of use” (priority 1982, dated 1984).
Converted amounts (≈) assume the structure as drawn. Read-outs that look alike come from different tables or passages of the source.

How the values were obtained:
[1] = tested on: Escherichia coli EC14; assay: MIC, standard agar-dilution assay (Table V); type: cell-based; settings: E. coli EC14, agar dilution
Procedure: (§1) Especially noteworthy is the improved activity against gram-negative bacteria for several derivatives when compared to the activity of OMT. […] The MIC's in Tables V and VI were determined by standard agar-dilution assays. The MIC's in Table VII were obtained using a conventional broth-dilution microtiter test.

[2] = tested on: Escherichia coli N10; assay: MIC, standard agar-dilution assay (Table V); type: cell-based; settings: E. coli N10, agar dilution
Procedure: as §1

[3] = tested on: Klebsiella pneumoniae KAE; assay: MIC, standard agar-dilution assay (Table V); type: cell-based; settings: K. pneumoniae KAE, agar dilution
Procedure: as §1

[4] = tested on: Klebsiella pneumoniae X26; assay: MIC, standard agar-dilution assay (Table V); type: cell-based; settings: K. pneumoniae X26, agar dilution
Procedure: as §1

[5] = tested on: Shigella sonnei N9; assay: MIC, standard agar-dilution assay (Table V); type: cell-based
Procedure: as §1

[6] = tested on: Staphylococcus aureus S13E; assay: MIC, standard agar-dilution assay (Table V); type: cell-based
Procedure: as §1

[7] = tested on: Staphylococcus aureus V41; assay: MIC, standard agar-dilution assay (Table V); type: cell-based
Procedure: as §1

[8] = tested on: Staphylococcus aureus X1.1; assay: MIC, standard agar-dilution assay (Table V); type: cell-based
Procedure: as §1

[9] = tested on: Staphylococcus aureus X400; assay: MIC, standard agar-dilution assay (Table V); type: cell-based
Procedure: as §1

[10] = tested on: Staphylococcus epidermidis EPI1; assay: MIC, standard agar-dilution assay (Table V); type: cell-based
Procedure: as §1

[11] = tested on: Staphylococcus epidermidis EPI2; assay: MIC, standard agar-dilution assay (Table V); type: cell-based
Procedure: as §1

[12] = tested on: Streptococcus Group 9960; assay: MIC, standard agar-dilution assay (Table V); type: cell-based
Procedure: as §1

[13] = tested on: Streptococcus Group D X66; assay: MIC, standard agar-dilution assay (Table V); type: cell-based
Procedure: as §1

[14] = tested on: Escherichia coli TEM; assay: MIC, standard agar-dilution assay (Table V); type: cell-based; settings: E. coli TEM, agar dilution
Procedure: (§2) The MIC's in Tables V and VI were determined by standard agar-dilution assays. The MIC's in Table VII were obtained using a conventional broth-dilution microtiter test.

[15] = tested on: Haemophilus influenzae Holt; assay: MIC, standard agar-dilution assay (Table V); type: cell-based
Procedure: as §2

[16] = tested on: Haemophilus influenzae R252; assay: MIC, standard agar-dilution assay (Table V); type: cell-based
Procedure: as §2

[17] = tested on: Streptococcus pyogenes C203; assay: MIC, standard agar-dilution assay (Table V); type: cell-based
Procedure: as §2

[18] = tested on: Streptococcus pneumoniae Park I; assay: microbe, parasite or virus in culture; type: cell-based
Procedure: as §1

[19] = tested on: Mycoplasma gallisepticum; assay: MIC, broth-dilution microtiter test (Table VII); type: cell-based
Procedure: as §1

[20] = tested on: Mycoplasma hyorhinis; assay: MIC, broth-dilution microtiter test (Table VII); type: cell-based; settings: M. hyorhinis, broth-dilution microtiter
Procedure: as §1

[21] = tested on: Mycoplasma synoviae; assay: MIC, broth-dilution microtiter test (Table VII); type: cell-based
Procedure: as §1

[22] = tested on: Pasteurella hemolytica 22C; assay: MIC, broth-dilution microtiter test (Table VII); type: cell-based; settings: P. hemolytica 22C
Procedure: as §1

[23] = tested on: Pasteurella hemolytica 23C; assay: MIC, broth-dilution microtiter test (Table VII); type: cell-based; settings: P. hemolytica 23C
Procedure: as §1

[24] = tested on: Pasteurella hemolytica 41D; assay: MIC, broth-dilution microtiter test (Table VII); type: cell-based; settings: P. hemolytica 41D
Procedure: as §1

[25] = tested on: Pasteurella multocida 17E; assay: MIC, broth-dilution microtiter test (Table VII); type: cell-based
Procedure: as §1

[26] = tested on: Pasteurella multocida 22A; assay: MIC, broth-dilution microtiter test (Table VII); type: cell-based
Procedure: as §1

[27] = tested on: Pasteurella multocida 40G; assay: MIC, broth-dilution microtiter test (Table VII); type: cell-based
Procedure: as §1

[28] = tested on: Pasteurella multocida 60A; assay: MIC, broth-dilution microtiter test (Table VII); type: cell-based
Procedure: as §1

[29] = tested on: Pasteurella multocida 68C; assay: MIC, broth-dilution microtiter test (Table VII); type: cell-based; settings: P. multocida 68C, broth-dilution microtiter
Procedure: as §1

[30] = tested on: Staphylococcus aureus; assay: MIC, broth-dilution microtiter test (Table VII); type: cell-based
Procedure: as §1

[31] = tested on: Streptococcus sp. 80; assay: MIC, broth-dilution microtiter test (Table VII); type: cell-based
Procedure: as §1

[32] = tested on: Pasteurella multocida; assay: Protection of one-day-old chicks against Pasteurella multocida infection (Table IX); type: in vivo; settings: subcutaneous 30 mg/kg × 2, 1 and 4 hours post-challenge
Procedure: The C-23 modified derivatives of OMT have also shown in vivo antibacterial activity against infections induced by gram-negative bacteria. Table IX summarizes the results of tests in which illustrative compounds were evaluated against Pasteurella infections in one-day-old chicks. The compounds were administered by subcutaneous injection at a dosage of 30 mg/kg, 1 and 4 hours post-challenge of the chicks with Pasteurella multocida (0.1 ml of a twenty-hour tryptose broth culture of an avian P. multocida given subcutaneously). In the tests, all ten non-medicated infected chicks died within 24 hours of Pasteurella challenge.

[33] = Escherichia coli, read-out: MIC
[34] = Klebsiella pneumoniae, read-out: MIC
[35] = S. aureus V41, penicillin-resistant strain, agar dilution
[36] = S. aureus X400, methicillin-resistant strain, agar dilution
[37] = S. epidermidis EPI1, agar dilution
[38] = S. epidermidis EPI2, agar dilution
[39] = Streptococcus Group 9960, agar dilution
[40] = Streptococcus Group D X66, agar dilution
[41] = H. influenzae Holt, ampicillin-sensitive strain, agar dilution
[42] = H. influenzae R252, ampicillin-resistant strain, agar dilution
[43] = S. pyogenes C203, agar dilution
[44] = S. pneumoniae Park I, agar dilution
[45] = M. gallisepticum, broth-dilution microtiter
[46] = M. synoviae, broth-dilution microtiter
[47] = P. multocida 17E, bovine isolate, broth-dilution microtiter
[48] = P. multocida 22A, broth-dilution microtiter
[49] = P. multocida 40G, broth-dilution microtiter
[50] = P. multocida 60A, avian isolate, broth-dilution microtiter
[51] = S. aureus, broth-dilution microtiter
[52] = Streptococcus sp. 80, broth-dilution microtiter

CCC1OC(=O)CC(O)C(C)C(OC2OC(C)C(O)C(N(C)C)C2O)C(CC=O)CC(C)C(=O)C=CC(C)(OCCc2ccccc2)C2CC12 (stereo not drawn) [Compound 18]
MIC [1, 33]: > 128 µg/mL
MIC [2, 33]: > 128 µg/mL
MIC [3, 34]: > 128 µg/mL
MIC [4, 34]: 16 µg/mL (≈ 22.8 µM)
MIC [5]: > 128 µg/mL
MIC ([6]; Staphylococcus aureus, S13E): 1 µg/mL (≈ 1.42 µM)
MIC ([7]; Staphylococcus aureus, V41): 2 µg/mL (≈ 2.85 µM)
MIC ([8]; Staphylococcus aureus, X1.1): 1 µg/mL (≈ 1.42 µM)
MIC ([9]; Staphylococcus aureus, X400): 2 µg/mL (≈ 2.85 µM)
MIC ([10]; Staphylococcus epidermidis, EPI1): 1 µg/mL (≈ 1.42 µM)
MIC ([11]; Staphylococcus epidermidis, EPI2): 2 µg/mL (≈ 2.85 µM)
MIC ([12]; GROUP9960): 2 µg/mL (≈ 2.85 µM)
MIC [13]: 1 µg/mL (≈ 1.42 µM)
MIC [14, 33]: 64 µg/mL (≈ 91.2 µM)
MIC ([15]; Haemophilus influenzae): 8 µg/mL (≈ 11.4 µM)
MIC ([16]; Haemophilus influenzae, R252): 8 µg/mL (≈ 11.4 µM)
MIC ([17]; Streptococcus pyogenes, C203): 1 µg/mL (≈ 1.42 µM)
MIC ([18]; Streptococcus pneumoniae): 0.25 µg/mL (≈ 0.356 µM)
MIC ([19]; Mycoplasmoides gallisepticum): 1.56 µg/mL (≈ 2.22 µM)
MIC ([20]; read-out: MIC): 25 µg/mL (≈ 35.6 µM)
MIC ([21]; Mycoplasmopsis synoviae): 3.12 µg/mL (≈ 4.45 µM)
MIC ([22]; Pasteurella, read-out: MIC): 25 µg/mL (≈ 35.6 µM)
MIC ([23]; Pasteurella, read-out: MIC): 25 µg/mL (≈ 35.6 µM)
MIC ([24]; Pasteurella, read-out: MIC): 25 µg/mL (≈ 35.6 µM)
MIC ([25]; Pasteurella multocida, 17E): 12.5 µg/mL (≈ 17.8 µM)
MIC ([26]; Pasteurella multocida, 22A): 12.5 µg/mL (≈ 17.8 µM)
MIC ([27]; Pasteurella multocida, 40G): 12.5 µg/mL (≈ 17.8 µM)
MIC ([28]; Pasteurella multocida, 60A): 12.5 µg/mL (≈ 17.8 µM)
MIC ([29]; Pasteurella multocida, read-out: MIC): 25 µg/mL (≈ 35.6 µM)
MIC ([30]; Staphylococcus aureus): 6.25 µg/mL (≈ 8.9 µM)
MIC ([31]; Streptococcus, SP.80): 1.56 µg/mL (≈ 2.22 µM)

CCC1OC(=O)CC(O)C(C)C(OC2OC(C)C(O)C(N(C)C)C2O)C(CC=O)CC(C)C(=O)C=CC(C)=CC1CNC(=O)CNC(=O)C(C)N (stereo not drawn) [Compound 14]
MIC [1]: -- (MIC ≥ 128)
MIC [2]: -- (MIC ≥ 128)
MIC [3]: -- (MIC ≥ 128)
MIC [4]: -- (MIC ≥ 128)
MIC ([6]; S. aureus S13E, agar dilution): 64 µg/mL (≈ 88.3 µM)
MIC [7, 35]: 64 µg/mL (≈ 88.3 µM)
MIC ([8]; S. aureus X1.1, agar dilution): 64 µg/mL (≈ 88.3 µM)
MIC [9, 36]: 128 µg/mL (≈ 177 µM)
MIC [10, 37]: 64 µg/mL (≈ 88.3 µM)
MIC [11, 38]: 64 µg/mL (≈ 88.3 µM)
MIC [12, 39]: 64 µg/mL (≈ 88.3 µM)
MIC [13, 40]: 64 µg/mL (≈ 88.3 µM)
MIC [14]: -- (MIC ≥ 128)
MIC [15, 41]: -- (MIC ≥ 128)
MIC [16, 42]: -- (MIC ≥ 128)
MIC [17, 43]: 16 µg/mL (≈ 22.1 µM)
MIC [18, 44]: 16 µg/mL (≈ 22.1 µM)
MIC [19, 45]: 12.5 µg/mL (≈ 17.2 µM)
MIC [20]: 50 µg/mL (≈ 69 µM)
MIC [21, 46]: 6.25 µg/mL (≈ 8.62 µM)
MIC [22]: > 50 µg/mL
MIC [23]: > 50 µg/mL
MIC [24]: > 50 µg/mL
MIC [25, 47]: > 50 µg/mL
MIC [26, 48]: > 50 µg/mL
MIC [27, 49]: > 50 µg/mL
MIC [28, 50]: > 50 µg/mL
MIC [29]: > 50 µg/mL
MIC [30, 51]: > 50 µg/mL
MIC [31, 52]: 25 µg/mL (≈ 34.5 µM)
Number of deaths/number treated [32]: 10/10

CCC1OC(=O)CC(O)C(C)C(OC2OC(C)C(O)C(N(C)C)C2O)C(CC=O)CC(C)C(=O)C=CC(C)=CC1CNC(=O)CNC(=O)C(C)NC(=O)OC(C)(C)C (stereo not drawn) [Compound 13]
MIC [1]: -- (MIC ≥ 128)
MIC [2]: -- (MIC ≥ 128)
MIC [3]: -- (MIC ≥ 128)
MIC [4]: -- (MIC ≥ 128)
MIC ([6]; S. aureus S13E, agar dilution): 32 µg/mL (≈ 38.8 µM)
MIC [7, 35]: 32 µg/mL (≈ 38.8 µM)
MIC ([8]; S. aureus X1.1, agar dilution): 16 µg/mL (≈ 19.4 µM)
MIC [9, 36]: 32 µg/mL (≈ 38.8 µM)
MIC [10, 37]: 16 µg/mL (≈ 19.4 µM)
MIC [11, 38]: 32 µg/mL (≈ 38.8 µM)
MIC [12, 39]: 32 µg/mL (≈ 38.8 µM)
MIC [13, 40]: 32 µg/mL (≈ 38.8 µM)
MIC [14]: -- (MIC ≥ 128)
MIC [15, 41]: 64 µg/mL (≈ 77.6 µM)
MIC [16, 42]: 64 µg/mL (≈ 77.6 µM)
MIC [17, 43]: 4 µg/mL (≈ 4.85 µM)
MIC [18, 44]: 4 µg/mL (≈ 4.85 µM)
MIC [19, 45]: 6.25 µg/mL (≈ 7.58 µM)
MIC [20]: 50 µg/mL (≈ 60.6 µM)
MIC [21, 46]: 12.5 µg/mL (≈ 15.2 µM)
MIC [22]: > 50 µg/mL
MIC [23]: > 50 µg/mL
MIC [24]: > 50 µg/mL
MIC [25, 47]: 50 µg/mL (≈ 60.6 µM)
MIC [26, 48]: > 50 µg/mL
MIC [27, 49]: 50 µg/mL (≈ 60.6 µM)
MIC [28, 50]: 50 µg/mL (≈ 60.6 µM)
MIC [29]: 50 µg/mL (≈ 60.6 µM)
MIC [30, 51]: 25 µg/mL (≈ 30.3 µM)
MIC [31, 52]: 6.25 µg/mL (≈ 7.58 µM)
Number of deaths/number treated [32]: 7/10
